Experimental data reported in patent US20160194299A1 (priority 2013, published 2016).
Converted amounts (≈) assume the structure as drawn. Like-named read-outs stand apart in the source and are kept apart here.

How the values were obtained:
in vitro = details: African green monkey
Mtb = assay: microbe, parasite or virus in culture; format: cell-based, Mycobacterium tuberculosis; details: Mycobacterium tuberculosis
[1] = read-out: MIC, microplate alamar blue assay (MABA; I)

SMILES	CC50 (in vitro) [µg/mL]	MIC (Mtb; [1]) [µg/mL]	MIC (Mtb; read-out: MIC (I)) [µg/mL]
O=C(Nc1sccc1C(=O)Nc1ncccn1)c1nc2cnccc2s1 [Compound 441]	25 to 50 (≈ 65.4 to 131 µM)	< 1	
CCOC(=O)NC(=O)c1ccsc1NC(=O)c1cn2cc(S(C)(=O)=O)ccc2n1 [Compound 438]	25 to 50 (≈ 57.3 to 115 µM)	< 1	
O=C(NC(=O)c1ccsc1NC(=O)c1nc2ccccc2s1)OCCN1CCOCC1 [Compound 38]	> 50		< 1
CCOC(=O)NC(=O)c1ccsc1NC(=O)c1cc(NC(C)=O)ccn1 [Compound 111]			> 3
CCOC(=O)NC(=O)c1cc(Cl)sc1NC(=O)c1nc2ccccc2s1 [Compound 15]			< 1
CC(C)OC(=O)NC(=O)c1ccsc1NC(=O)c1ccc2nonc2c1 [Compound 403]	< 25	< 1	
CC(C)OC(=O)NC(=O)c1ccsc1NC(=O)c1ccc2nsnc2c1 [Compound 449]		< 1	
Cc1nnc(NC(=O)c2ccsc2NC(=O)c2nc3ccccc3s2)s1 [Compound 110]			> 3
O=C(Nc1sccc1C(=O)OC1CCCC1)c1nc2ccccc2s1 [Compound 429]	> 50	> 3	
CCOC(=O)NC(=O)c1ccsc1NC(=O)c1ccc(-c2csc(C)n2)cc1 [Compound 241]	> 50		
CCOC(=O)NC(=O)c1ccsc1NC(=O)c1cc2c(s1)CCN(S(C)(=O)=O)C2 [Compound 232]	> 50		
CCOC(=O)NC(=O)c1ccsc1NC(=O)c1ccc2sc(C(C)(C)C)nc2c1 [Compound 415]	> 50	> 3	
CCOC(=O)NC(=O)c1ccsc1NC(=O)c1nc2ccc(OC)cc2s1 [Compound 412]	> 50	< 1	
COCCOC(=O)NC(=O)c1ccsc1NC(=O)c1nc2ncccc2s1 [Compound 436]	25 to 50 (≈ 61.5 to 123 µM)	> 3	
CCOC(=O)NC(=O)c1ccsc1NC(=O)c1ccc2nsnc2c1 [Compound 448]		< 1	
CCOC(=O)NC(=O)c1cc(C)sc1NC(=O)c1nc2cnccc2s1 [Compound 443]		< 1	
CCOC(=O)NC(=O)c1ccsc1NC(=O)c1ccc2nonc2c1 [Compound 402]	< 25	< 1	
O=C(Nc1sccc1C(=O)N1CCNCC1)c1nc2ccccc2s1 [Compound 228]	< 25		
O=C(Nc1sccc1C(=O)N1CCOC1=O)c1nc2ccccc2s1 [Compound 107]			> 3
CC(C)(C)OC(=O)NC(=O)c1ccsc1NC(=O)c1nc2ccccc2s1 [Compound 23]			< 1
O=C(NC(=O)c1ccsc1NC(=O)c1nc2ncccc2s1)OCC(F)(F)F [Compound 434]	25 to 50 (≈ 58.1 to 116 µM)	> 3	

SMILES	CC50 (in vitro) [µg/mL]	MIC (Mtb; [1]) [µg/mL]	MIC (Mtb; read-out: MIC (I)) [µg/mL]
CC(C)(C)OC(=O)N1CCN(C(=O)c2ccsc2NC(=O)c2nc3ccccc3s2)CC1 [Compound 227]	> 50		
COC(=O)COC(=O)NC(=O)c1ccsc1NC(=O)c1nc2cnccc2s1 [Compound 431]	25 to 50 (≈ 59.5 to 119 µM)	< 1	
CCOC(=O)NC(=O)c1ccsc1NC(=O)c1cc2cccc(F)c2s1 [Compound 407]	< 25	< 1	
CCOC(=O)NC(=O)c1ncsc1NC(=O)c1nc2ccccc2s1 [Compound 106]			> 3
O=C(NC(=O)c1ccsc1NC(=O)c1nc2ccccc2s1)OC1CCCCC1 [Compound 30]	> 50		< 1
CCOC(=O)NC(=O)c1ccsc1NC(=O)c1nc2nc(C)c(Cl)cc2s1 [Compound 409]	25 to 50 (≈ 58.8 to 118 µM)	< 1	
CC(C)OC(=O)NC(=O)c1ccsc1NC(=O)c1cn2cc(S(C)(=O)=O)ccc2n1 [Compound 439]	25 to 50 (≈ 55.5 to 111 µM)	> 3	
CCOC(=O)NC(=O)c1ccsc1NC(=O)c1ccc2ocnc2c1 [Compound 26]	> 50		< 1
CCOC(=O)NC(=O)c1c(NC(=O)c2nc3ccccc3s2)sc(C#N)c1C [Compound 216]	> 50		
Nc1nnc(-c2ccsc2NC(=O)c2nc3ccccc3s2)o1 [Compound 210]	> 50		
O=C(Nc1sccc1C(=O)Nc1ccccn1)c1nc2cnccc2s1 [Compound 454]		> 3	
CCOC(=O)NC(=O)c1ccsc1NC(=O)c1nc(-c2ccccc2)cs1 [Compound 240]	> 50		
O=C(Nc1sccc1C(=O)OC1CCCCC1)c1nc2ccccc2s1 [Compound 430]	> 50	> 3	
CC(OC(=O)NC(=O)c1ccsc1NC(=O)c1nc2ccccc2s1)C(F)(F)F (centres unmarked) [Compound 24]	< 25		< 1
COC(=O)CNC(=O)c1ccsc1NC(=O)c1nc2ccccc2s1 [Compound 234]	> 50		
O=C(Nc1sccc1C(=O)NC(=O)N1CCCCC1)c1nc2cnccc2s1 [Compound 428]	> 50	1 to 3 (≈ 2.41 to 7.22 µM)	
COC(=O)CCCNC(=O)c1ccsc1NC(=O)c1nc2ccccc2s1 [Compound 236]	> 50		
CCOC(=O)NC(=O)c1ccsc1NC(=O)c1nc2ccc(C)nc2s1 [Compound 224]	> 50		
CCOC(=O)NC(=O)c1ccsc1NC(=O)c1ccc2sc(C(C)C)nc2c1 [Compound 413]	> 50	< 1	
O=C(NC(=O)c1cc(F)sc1NC(=O)c1nc2ccccc2s1)OCC(F)(F)F [Compound 17]	< 25		< 1
COC(=O)c1ccsc1NC(=O)c1nc2cnccc2s1 [Compound 432]	25 to 50 (≈ 78.3 to 157 µM)	> 3	

SMILES	CC50 (in vitro) [µg/mL]	MIC (Mtb; [1]) [µg/mL]	MIC (Mtb; read-out: MIC (I)) [µg/mL]
CCOC(=O)NC(=O)c1ccsc1NC(=O)c1cncc(NC(C)=O)c1 [Compound 22]			< 1
O=C(Nc1sccc1C(=O)NCC1CCCO1)c1nc2cnccc2s1 (centres unmarked) [Compound 455]		> 3	
CC(C)OC(=O)NC(=O)c1ccsc1NC(=O)c1cccc2cc(Cl)ccc12 [Compound 447]		1 to 3 (≈ 2.4 to 7.2 µM)	
CCOC(=O)NC(=O)c1ccsc1NC(=O)c1nc2c(s1)N(S(C)(=O)=O)CCC2 [Compound 233]	> 50		
CCOC(=O)NC(=O)c1ccccc1NC(=O)c1nc2ccccc2s1 [Compound 214]	> 50		
O=C(NC(=O)c1ccsc1NC(=O)c1nc2ccccc2s1)OC1CCCC1 [Compound 31]	> 50		< 1
CCOC(=O)NC(=O)c1cc(Cl)sc1NC(=O)c1nc2cnccc2s1 [Compound 445]		< 1	
CC(C)OC(=O)NC(=O)c1ccsc1NC(=O)c1cn2ccc(C#N)cc2n1 [Compound 433]	25 to 50 (≈ 62.9 to 126 µM)	1 to 3 (≈ 2.52 to 7.55 µM)	
CN(C)CCOC(=O)NC(=O)c1ccsc1NC(=O)c1nc2ccccc2s1 [Compound 39]	> 50		> 3
CCOC(=O)NC(=O)c1ccsc1NC(=O)c1cc(=O)c2ccccc2o1 [Compound 400]	< 25	< 1	
O=C(Nc1sccc1C(=O)Nc1cnccn1)c1nc2cnccc2s1 [Compound 440]	25 to 50 (≈ 65.4 to 131 µM)	> 3	
CCOC(=O)NC(=O)c1ccsc1NC(=O)c1ccc2c(c1)OCO2 [Compound 27]	< 25		< 1
CCOC(=O)NC(=O)c1ccsc1NC(=O)Cc1nc2ccccc2s1 [Compound 238]	25 to 50 (≈ 64.2 to 128 µM)		
CNC(=O)CNC(=O)c1ccsc1NC(=O)c1nc2ccccc2s1 [Compound 235]	> 50		
CC(C)OC(=O)NC(=O)c1ccsc1NC(=O)c1cc(=O)c2ccccc2o1 [Compound 401]	< 25	< 1	
CCOC(=O)NC(=O)c1ccsc1NC(=O)c1nc2cc(CN)cnc2s1 [Compound 416]	> 50	1 to 3 (≈ 2.47 to 7.4 µM)	
CCOC(=O)NC(=O)c1ccsc1NC(=O)c1csc2c1CCCC2 [Compound 231]	< 25		
CCOC(=O)NC(=O)c1ccsc1NC(=O)c1nc2ccncc2s1 [Compound 458]		> 3	
O=C(Nc1sccc1C(=O)Nc1ncco1)c1nc2cnccc2s1 [Compound 456]		1 to 3 (≈ 2.69 to 8.08 µM)	
CCOC(=O)NC(=O)c1cnn(C)c1NC(=O)c1nc2ccccc2s1 [Compound 105]			> 3
CC(C)OC(=O)NC(=O)c1ccsc1NC(=O)c1cc2cccc(F)c2s1 [Compound 408]	< 25	< 1	

SMILES	CC50 (in vitro) [µg/mL]	MIC (Mtb; [1]) [µg/mL]	MIC (Mtb; read-out: MIC (I)) [µg/mL]
CCOC(=O)NC(=O)c1ccsc1NC(=O)c1ccc2sc(C3CC3)nc2c1 [Compound 414]	> 50	< 1	
CCCCOC(=O)NC(=O)c1ccsc1NC(=O)c1nc2ccccc2s1 [Compound 19]			< 1
CCOC(=O)NC(=O)c1cc(F)sc1NC(=O)c1nc2ccccc2s1 [Compound 16]	25 to 50 (≈ 63.5 to 127 µM)		< 1
CCOC(=O)NC(=O)c1ccsc1NC(=O)c1nc2cc(CNC(=O)OC(C)(C)C)cnc2s1 [Compound 411]	25 to 50 (≈ 49.4 to 98.9 µM)	< 1	
CCOC(=O)NC(=O)c1ccsc1NCc1nc2ccccc2s1 [Compound 209]	> 50		
CCOC(=O)NC(=O)c1cc(C)sc1NC(=O)c1nc2ccccc2s1 [Compound 14]			< 1
COC(=O)NC(=O)c1ccsc1NC(=O)c1nc2ccccc2s1 [Compound 21]			< 1
CCOC(=O)NC(=O)c1ccsc1NC(=O)c1ccn2cnnc2c1 [Compound 451]		< 1	
CCNC(=O)NC(=O)c1ccsc1NC(=O)c1nc2ccccc2s1 [Compound 109]			> 3
COC(=O)c1cccnc1NC(=O)c1nc2ccccc2s1 [Compound 444]		1 to 3 (≈ 3.19 to 9.57 µM)	
CCOC(=O)NC(=O)c1cc(C)sc1NC(=O)c1nc2ncccc2s1 [Compound 446]		< 1	
CCOC(=O)NC(=O)c1ccsc1NC(=O)c1nc2ncc(C)cc2s1 [Compound 457]		< 1	
CN1CCN(C(=O)c2ccsc2NC(=O)c2nc3ccccc3s2)CC1 [Compound 225]	25 to 50 (≈ 64.7 to 129 µM)		
CCOC(=O)NC(=O)c1ccsc1NC(=O)c1csc2c1CCN(S(C)(=O)=O)C2 [Compound 230]	> 50		
CCOC(=O)NC(=O)c1ccsc1NC(=O)c1cc2c(s1)CCCC2 [Compound 239]	> 50		
CC(C)OC(=O)NC(=O)c1ccsc1NC(=O)c1ccn2cnnc2c1 [Compound 452]		< 1	
CCOS(=O)(=O)NC(=O)c1ccsc1NC(=O)c1nc2ccccc2s1 [Compound 108]			> 3
O=C(Nc1sccc1C(=O)N1CCNC1=O)c1nc2ccccc2s1 [Compound 226]	> 50		
CCOC(=O)NC(=O)c1ccsc1NC(=O)c1ccnc2cc(Cl)ccc12 [Compound 450]		> 3	
